From patent publication EP0549291A1, “Thymidylate synthase inhibitors” (TAKEDA CHEMICAL INDUSTRIES, LTD., priority 1991, dated 1993)

Key:
[1] = test system: Meth A fibrosarcoma (Meth A) cells; assay: Assay of antiproliferative activity against Meth A fibrosarcoma (Meth A) cells; type: cell-based; settings: Mus musculus, 72 hours culture at 37°C and 5% CO₂, cell count with Coulter counter, mean of 3 wells, read-out: Meth A cell growth inhibitory activity IC₅₀
Experimental: Assay of antiproliferative activity against Meth A fibrosarcoma (Meth A) cells
Meth A cells (2 x 10⁴ cells/ml) prepared in the routine manner were seeded, 2.0 ml per well, in a 12-well plate and subjected to stationary culture at 37°C and 5% CO₂. Each Example compound dissolved at an appropriate concentration was serially diluted 1:2 to 1:10 with MEM (Nissui Pharmaceutical) and added in the medium and again the cells were subjected to stationary culture for 72 hours at 37°C and 5% CO₂. Then, the total cell count at each concentration was determined with a Coulter counter (Coulter Electronics, FL) and the mean value of 3 wells was expressed as cell count per milliliter. The concentration of each compound required to reduce the cell count of the untreated control group to 50% was regarded as the IC₅₀ value of the compound.

[2] = molecular target: T1, thymidylate synthase (TS) (Mus musculus, UniProt P07607); assay: Assay of TS inhibitory activity; type: biochemical; settings: crude TS fraction from Meth A cells; [H³]dUMP, 37°C, 1 hour; read-out: TS inhibitory activity IC₅₀
T1 construct: A crude fraction of TS was prepared from Meth A fibrosarcoma (Meth A) cells subcultured in vitro; endogenous in cells; host or cells: Meth A fibrosarcoma cells (100,000 x g supernatant of ultrasonicated cells)
T1 sequence (P07607 whole entry): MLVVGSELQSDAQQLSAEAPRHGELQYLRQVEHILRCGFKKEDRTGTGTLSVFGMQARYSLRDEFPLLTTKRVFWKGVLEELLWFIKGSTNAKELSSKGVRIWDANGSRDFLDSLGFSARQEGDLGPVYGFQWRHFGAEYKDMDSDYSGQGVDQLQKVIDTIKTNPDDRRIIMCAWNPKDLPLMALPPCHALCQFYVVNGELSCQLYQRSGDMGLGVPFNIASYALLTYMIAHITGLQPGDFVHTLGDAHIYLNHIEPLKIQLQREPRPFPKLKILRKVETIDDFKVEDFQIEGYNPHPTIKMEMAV
Experimental: Assay of TS inhibitory activity
A crude fraction of TS was prepared from Meth A fibrosarcoma (Meth A) cells subcultured in vitro. For cell culture, Eagle's minimum essential medium (MEM, Nissui Pharmaceutical) containing 10% fetal bovine serum was used. Cells in the logarithmic growth phase were harvested, washed twice with phosphate buffered saline, suspended in 0.2 M sucrose and 0.01 M Tris-HCl buffer (pH 7.5), ultrasonicated, and centrifuged at 100,000 x g to obtain a supernatant. The protein concentration was determined using a protein dye reagent (Bio-Rad) with bovine γ-globulin as standard protein. Samples with a protein concentration of 100 mg/ml were prepared.
The enzymatic reaction was conducted as follows, using the method described by D. Roberts in Biochemistry 5, 3546 (1966), partially modified. The reaction mixture consisted of 0.058% formaldehyde, 6.78 mM sodium fluoride, 0.2 mM 2-mercaptoethanol, 6.24 mg/ml bovine serum albumin, 80 µM […] (dUMP), 80 µM tetrahydrofolic acid, 2 mg/ml crude TS fraction, and 0.173 M Tris-HCl buffer (pH 7.5). To this mixture was added a varying concentration of each Example compound. To 50 µl of each final mixture was added 540 KBq [H³]dUMP and the resultant mixture was incubated in a 96-well plate at 37°C for 1 hour. After completion of the incubation, 26.65% trichloroacetic acid and 3.33 mg/ml dUMP were added to stop the reaction and 220 µl of 11.4 mg/ml activated charcoal was added. The whole volume was centrifuged and the radioactivity in 100 µl of the supernatant was determined by the liquid scintillation method. Thus, the concentration required to cause 50% inhibition of TS activity (IC₅₀ value) was obtained.

| SMILES | IC50 [2] | IC50 [1] |
| --- | --- | --- |
| NCC(c1ccc(C(=O)N[C@@H](CCC(=O)O)C(=O)O)cc1)c1c[nH]c2nc(N)nc(O)c12 (stereo partly drawn) [Example 18, N-[4-[1-(2-amino-4-hydroxy-7H-pyrrolo[2,3-d]pyrimidin-5-yl)-2-aminoethyl]benzoyl]-L-glutamic acid] | – | 810 nM |
| Nc1nc2[nH]cc(Cc3ccc(C(=O)N[C@@H](CCC(=O)O)C(=O)O)s3)c2c(=O)[nH]1 [Example 6, N-[5-(2-amino-4-hydroxy-7H-pyrrolo[2,3-d]pyrimidin-5-yl)methyl-2-thenoyl]-L-glutamic acid] | 83 nM | 63 nM |
| Cn1cc(Cc2ccc(C(=O)N[C@@H](CCC(=O)O)C(=O)O)cc2)c2c(O)nc(N)nc21 [Example 2, N-[4-(2-amino-4-hydroxy-7-methylpyrrolo-[2,3-d]pyrimidin-5-yl)methylbenzoyl]-L-glutamic acid] | 860 nM | – |
| CCC(c1ccc(C(=O)N[C@@H](CCC(=O)O)C(=O)O)cc1)c1c[nH]c2nc(N)nc(O)c12 (stereo partly drawn) [Example 12, N-[4-[1-(2-amino-4-hydroxy-7H-pyrrolo[2,3-d]pyrimidin-5-yl)propyl]benzoyl]-L-glutamic acid] | – | 39 nM |
| Nc1nc(O)c2c(Cc3ccc(C(=O)N[C@@H](CCC(=O)O)C(=O)O)cc3)c[nH]c2n1 [Example 4, N-[4-(2-amino-4-hydroxy-7H-pyrrolo[2,3-d]pyrimidin-5-yl)methylbenzoyl]-L-glutamic acid] | – | 76 nM |

Further lines, with some results ahead:

| IC50 [2] | SMILES | IC50 [1] |
| --- | --- | --- |
| 39 nM | CC(c1ccc(C(=O)N[C@@H](CCC(=O)O)C(=O)O)cc1)c1c[nH]c2nc(N)nc(O)c12 (stereo partly drawn) [Example 10, N-[4-[1-(2-amino-4-hydroxy-7H-pyrrolo[2,3-d]pyrimidin-5-yl)ethyl]benzoyl]-L-glutamic acid] | 66 nM |
| 590 nM | Nc1nc(O)c2c(C(C[N+](=O)[O-])c3ccc(C(=O)N[C@@H](CCC(=O)O)C(=O)O)cc3)c[nH]c2n1 (stereo partly drawn) [Example 16, N-[4-[1-(2-amino-4-hydroxy-7H-pyrrolo[2,3-d]pyrimidin-5-yl)-2-nitroethyl]benzoyl]-L-glutamic acid] | 93 nM |
| 490 nM | Nc1nc(O)c2c(Cc3ccc(C(=O)N[C@@H](CCC(=O)O)C(=O)O)cc3F)c[nH]c2n1 [Example 8, N-[4-(2-amino-4-hydroxy-7H-pyrrolo[2,3-d]pyrimidin-5-yl)methyl-3-fluorobenzoyl]-L-glutamic acid] | 110 nM |
| 37 nM | C=CC(c1ccc(C(=O)N[C@@H](CCC(=O)O)C(=O)O)cc1)c1c[nH]c2nc(N)nc(O)c12 (stereo partly drawn) [Example 14, N-[4-[1-(2-amino-4-hydroxy-7H-pyrrolo[2,3-d]pyrimidin-5-yl)-2-propenyl]benzoyl]-L-glutamic acid] | 91 nM |
